The record followed here is US7956069B2, “Compounds” (AstraZeneca AB, priority 2006, dated 2011).

The target in assay [1] is T1, hM3 (human Muscarinic receptor subtype 3) (Homo sapiens, UniProt P20309).
T1 construct: expressed in transfected cells; host or cells: CHO cells (Chinese hamster ovary cells, ATCC)
The experiment in a line: Human M3 calcium mobilization FLIPR assay. In kind it is cell-based. The following applies: CHO cells expressing hM3, Ca2+ release. On the procedure:
(§1) Biological Evaluation Human M1, Rat M1, Human M3 and Human M5 Calcium Mobilization FLIPR™ Assay
(§2) The compound activity in the present invention (EC50 or IC50) was measured using a 384 plate-based imaging assay that monitors drug induced intracellular Ca^2+ release in whole cells. Activation of hM1 (human Muscarinic receptor subtype 1, gene bank access NM_000738), rM1 (rat Muscarinic receptor subtype 1, gene bank access NM_080773), hM3 (human Muscarinic receptor subtype 3, gene bank access NM_000740NM_000740) and hM5 (human Muscarinic receptor subtype 5, gene bank access NM_0121258), receptors expressed in CHO cells (Chinese hamster ovary cells, ATCC) was quantified in a Molecular Devices FLIPR II™ instrument as an increase in fluorescent signal. Inhibition of hM3 and hM5 by compounds was determined by the decrease in fluorescent signal in response to 20 nM carbachol activation.
(§3) CHO cells were plated in 384-black polylysine coated plate (Costar) at 8000 cells/well/50 μl for 24 hours or 4000 cells/well for 48 hours in a humidified incubator (5% CO2 and 37° C.) in DMEM/F12 medium without selection agent. Prior to the experiment the cell culture medium was removed from the plates by inversion. A loading solution of 30 μl of Hank's balanced salt solution, 10 mM Hepes and 2.5 mM Probenicid at Ph 7.4 (Cat no. 311-520-VL, Wisent) with 2 μM calcium indicator dye (FLUO-3AM, Molecular Probes F14202) was added to each well. Plates were incubated at 37° C. for 60 minutes prior to start the experiment. The incubation was terminated by washing the cells four times in assay buffer, leaving a residual 25 μl buffer per well. Cell plates were then transferred to the FLIPR, ready for compound additions.
(§4) The day of experiment, carbachol and compounds were diluted in three-fold concentration range (10 points serial dilution) for addition by FLIPR instrument. For all calcium assays, a baseline reading was taken for 30 seconds followed by the addition of 12.5 μl (25 μl for hM1 and rM1) of compounds, resulting in a total well volume of 37.5 μl (50 μl for hM1 and rM1). Data were collected every 1.6 seconds for 300 seconds. For hM3 and hM5 an additional 12.5 μl of carbachol (20 nM final) was added at 300 seconds. After this addition of carbachol (producing a final volume of 50 μl), the FLIPR continued to collect data every 2 seconds for 240 seconds. The fluorescence emission was read using filter 1 (emission 520-545 nm) by the FLIPR on board CCD camera.
(§5) Calcium mobilization output data were calculated as the maximal relative fluorescence unit (RFU) minus the minal value for both compound and agonist reading frame (except for hM1 and rM1 using only the maximal RFU). Data were analyzed using sigmoidal fits of a non-linear curve-fitting program (XLfit version 5.0.6 from ID Business Solutions Limited, Guildford, UK). All EC50 and IC50 values are reported as arithmetic means±standard error of mean of ‘n’ independent experiments.
For orientation: A change in cytosolic calcium serves as a functional read-out for many receptors and channels.

Assay [2] has as its target T2, hM5 (human Muscarinic receptor subtype 5) (Homo sapiens, UniProt P08912).
T2 construct: expressed in transfected cells; host or cells: CHO cells (Chinese hamster ovary cells, ATCC)
T2 sequence (P08912 1-532): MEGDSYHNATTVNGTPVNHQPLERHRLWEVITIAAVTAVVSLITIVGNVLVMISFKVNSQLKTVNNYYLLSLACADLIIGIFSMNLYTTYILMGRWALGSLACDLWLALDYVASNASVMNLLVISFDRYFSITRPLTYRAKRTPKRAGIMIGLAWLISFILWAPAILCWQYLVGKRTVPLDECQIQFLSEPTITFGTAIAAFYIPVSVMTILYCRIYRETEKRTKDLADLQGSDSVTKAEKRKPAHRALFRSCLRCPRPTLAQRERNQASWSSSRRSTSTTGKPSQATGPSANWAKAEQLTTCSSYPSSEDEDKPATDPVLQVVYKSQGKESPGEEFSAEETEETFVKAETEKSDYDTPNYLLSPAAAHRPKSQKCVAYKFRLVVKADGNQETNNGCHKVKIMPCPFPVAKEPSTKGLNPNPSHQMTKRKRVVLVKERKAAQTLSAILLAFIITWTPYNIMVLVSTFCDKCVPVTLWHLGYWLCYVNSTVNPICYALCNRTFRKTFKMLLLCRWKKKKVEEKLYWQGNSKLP
Kind of assay: Human M5 calcium mobilization FLIPR assay. The class given is cell-based. The note with it: CHO cells expressing hM5, Ca2+ release. On the procedure:
as §1, §2, §3, §4, §5

Structures are written as SMILES. pEC50: −log10 of the molar value.

T1 sequence (P20309 whole entry): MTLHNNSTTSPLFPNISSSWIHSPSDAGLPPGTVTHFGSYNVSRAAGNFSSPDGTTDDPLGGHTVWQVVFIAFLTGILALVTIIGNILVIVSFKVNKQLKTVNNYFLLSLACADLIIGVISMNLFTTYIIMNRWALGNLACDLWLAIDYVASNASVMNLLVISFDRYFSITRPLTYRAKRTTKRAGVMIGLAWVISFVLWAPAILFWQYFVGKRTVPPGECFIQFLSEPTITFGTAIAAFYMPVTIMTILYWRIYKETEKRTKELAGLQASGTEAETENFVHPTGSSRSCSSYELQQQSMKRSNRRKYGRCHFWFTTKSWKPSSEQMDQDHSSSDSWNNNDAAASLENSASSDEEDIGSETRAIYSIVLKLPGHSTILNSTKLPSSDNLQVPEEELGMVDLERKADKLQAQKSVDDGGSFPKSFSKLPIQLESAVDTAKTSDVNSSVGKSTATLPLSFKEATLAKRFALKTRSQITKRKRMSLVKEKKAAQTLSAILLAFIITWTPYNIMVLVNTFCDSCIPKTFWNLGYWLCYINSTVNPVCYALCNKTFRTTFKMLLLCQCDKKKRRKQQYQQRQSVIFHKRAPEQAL

Take `CCOC(=O)N1CC[C@H](N2CCC(N3C(=O)N[C@H]4CCCC[C@@H]43)CC2)C1`: the pEC50 (commonly the EC50 on a negative log10 scale, so that one unit is a factor of ten) is less than 4.40 in assay [1] and 5.41 in assay [2].

On to `CCOC(=O)N1CCC(N2CCC(N3C(=O)N[C@H]4CCCC[C@@H]43)CC2)CC1`, for which the negative-log EC50 (pEC50) in assay [1] was 5.60; in assay [2], 6.66.

Take `CC(C)OC(=O)N1CCC(N2CCC(N3C(=O)C[C@H]4CCCC[C@@H]43)CC2)CC1`: the pEC50 in assay [1] and in assay [2] was less than 4.40 in each case.

Take `O=C(C1CC1)N1CCC(N2CCC(N3C(=O)N[C@@H]4CCCC[C@H]43)CC2)CC1`: the pEC50 in assay [1] and in assay [2] was less than 4.40 throughout.

As for `O=C(C1CCCC1)N1CCC(N2CCC(N3C(=O)N[C@H]4CCCC[C@@H]43)CC2)CC1`, the pEC50 in assay [1] and in assay [2] was less than 4.40 in each case.

Consider `O=C1CCCN1CCC(=O)N1CCC(N2CCC(N3C(=O)N[C@@H]4CCCC[C@H]43)CC2)CC1`, for which the pEC50 in assay [1] is 5.27; in assay [2], 5.62.

Regarding `O=C1CCCN1CCC(=O)N1CCC(N2CCC(N3C(=O)N[C@H]4CCCC[C@@H]43)CC2)CC1`, the results for the pEC50 in assay [1] and in assay [2] were less than 4.40 and 5.80, respectively.

With `CC(C)OC(=O)N1CCC(N2CCC(N3C(=O)N[C@H]4CCCC[C@@H]43)CC2)CC1`, the figures for the pEC50 in assay [1] and in assay [2] were less than 4.40 and 7.44, respectively.

As for `CN1C(=O)N(C2CCN(C3CCN(C(=O)C4CC4)CC3)CC2)[C@H]2CCCC[C@@H]21`, the negative-log EC50 (pEC50) in assay [1] and in assay [2] was less than 4.40 each time.

For `CC(C)OC(=O)N1CCC(N2CCC(N3C(=O)N[C@@H]4CCCC[C@@H]43)CC2)CC1`, the figures for the pEC50 in assay [1] and in assay [2] were less than 4.40 and 7.14, respectively.

As for `COc1ccccc1C(=O)N1CCC(N2CCC(N3C(=O)N[C@@H]4CCCC[C@H]43)CC2)CC1`, the pEC50 in assay [1] and in assay [2] was less than 4.40 throughout.
